Test systems include KM12 colon; MALME-3M melanoma; RXF 393 renal; NCI-H226 lung; UACC-257 melanoma; SN12C renal; SF-539 CNS; A498 renal; HL-60(TB) leukemia; UACC-62 melanoma.
Experiment in all cases: growth of human tumour cells (NCI), 48 h

“And” between values parts separate entries of the source, which are not always exact repeats. Equal entries are not always repeated.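 These data come from cells grown in 96-well plates and exposed to compound for 48 hours at five concentrations. GI50 is the concentration that inhibits growth by half. TGI marks complete inhibition of growth.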

In the case of `O=C1NC(=O)C(c2c[nH]c3ccccc23)=C1c1c[nH]c2ccccc12`, the GI50 is 9.3 µM in the experiment with KM12 colon; over 14.7 µM in the experiment with MALME-3M melanoma; 4.57 µM with RXF 393 renal; 3.83 µM with NCI-H226 lung; 15.6 µM in the experiment on UACC-257 melanoma; 16.3 µM with SN12C renal. The GI50 with SF-539 CNS was 9.73 µM; in the experiment with A498 renal, 3.34 µM; in the experiment with HL-60(TB) leukemia it was 11.1 µM; with UACC-62 melanoma it was 12.1 µM. Further, the TGI in the experiment on KM12 colon is over 25 µM; in the experiment on MALME-3M melanoma, over 25 µM; in the experiment with RXF 393 renal it was 24.3 µM; with NCI-H226 lung, over 25 µM; in the experiment on UACC-257 melanoma, over 25 µM; in the experiment on SN12C renal, over 25 µM. Further, the TGI with SF-539 CNS, with A498 renal, in the experiment on HL-60(TB) leukemia and in the experiment on UACC-62 melanoma was over 25 µM throughout.

On to `O=C(CCCc1ccc(N(CCCl)CCCl)cc1)NCc1ccccc1`, for which the GI50 in the experiment with KM12 colon is 12.3 µM; in the experiment with MALME-3M melanoma it was 13.2 µM; in the experiment on RXF 393 renal it was 10.5 µM; with NCI-H226 lung, 14.6 µM; in the experiment with UACC-257 melanoma it was 12.1 µM; in the experiment on SN12C renal it was 4.41 µM. Moreover, the GI50 with SF-539 CNS is 17.8 µM; in the experiment on A498 renal, 2.59 µM; with HL-60(TB) leukemia, 4.37 µM; in the experiment with UACC-62 melanoma it was 4.69 µM. Besides, the TGI in the experiment with KM12 colon was 52.1 µM; in the experiment with MALME-3M melanoma, 37.6 µM; in the experiment on RXF 393 renal, 25.2 µM; in the experiment with NCI-H226 lung, 47.2 µM; with UACC-257 melanoma, 55.5 µM; in the experiment with SN12C renal, over 100 µM. Also, the TGI was determined as 73.8 µM in the experiment with SF-539 CNS, 20.8 µM with A498 renal, 23.4 µM in the experiment with HL-60(TB) leukemia and 22 µM in the experiment on UACC-62 melanoma.

As for `Cc1ccc(N)c(S)c1`, the TGI with KM12 colon turned out to be 36.7 µM; with MALME-3M melanoma, 82.6 µM; in the experiment with RXF 393 renal it was 30.8 µM; with NCI-H226 lung it was 49.1 µM; in the experiment with UACC-257 melanoma, 54.7 µM; in the experiment with SN12C renal, 7.83 µM. Moreover, the TGI stood at 31.3 µM in the experiment with SF-539 CNS, 38.6 µM in the experiment with A498 renal, 58.5 µM with HL-60(TB) leukemia and 32.7 µM with UACC-62 melanoma.

For the molecule `CCCCn1c(=O)[nH]c(N)c([C@@H]2c3c([nH]c(=O)n(CCCC)c3=O)Oc3ccc4ccccc4c32)c1=O`, the GI50 in the experiment on KM12 colon is 1.69 µM; in the experiment with MALME-3M melanoma, 2.34 µM; in the experiment with RXF 393 renal, 2.17 µM; in the experiment on NCI-H226 lung it was 4.96 µM; in the experiment with UACC-257 melanoma, 2.41 µM; in the experiment with SN12C renal it was 2.51 µM. For the same molecule, the GI50 in the experiment on SF-539 CNS was 7.86 µM; with A498 renal, 13.7 µM; in the experiment on HL-60(TB) leukemia it was 2.47 µM; in the experiment on UACC-62 melanoma it was 1.67 µM. For the same molecule, the TGI in the experiment with KM12 colon worked out at 3.26 µM; in the experiment on MALME-3M melanoma, 7.02 µM; with RXF 393 renal, 4.27 µM; in the experiment with NCI-H226 lung, 25.2 µM; in the experiment on UACC-257 melanoma, 5.78 µM; in the experiment with SN12C renal, 6.94 µM. The TGI in the experiment with SF-539 CNS stood at 20.4 µM; in the experiment with A498 renal, 27.8 µM; with HL-60(TB) leukemia, 6.75 µM; in the experiment on UACC-62 melanoma, 3.36 µM.

`CC[C@@]1(OP(=O)(O)O)C(=O)OCc2c1cc1n(c2=O)Cc2cc3ccccc3nc2-1`: the TGI with KM12 colon was 3.47 µM; in the experiment with MALME-3M melanoma, 9.87 µM and 14 µM; in the experiment with RXF 393 renal it was 3.52 µM and 0.81 µM; with NCI-H226 lung, 1.16 µM and 0.66 µM; in the experiment on UACC-257 melanoma, 2.58 µM and 3.86 µM; in the experiment with SN12C renal it was 6.08 µM and 0.619 µM. Further, the TGI is 0.537 µM and 0.373 µM with SF-539 CNS; 0.559 µM and 0.96 µM with A498 renal; 0.188 µM in the experiment on HL-60(TB) leukemia; 0.404 µM and 1.48 µM in the experiment on UACC-62 melanoma. The GI50 was 1.09 µM in the experiment with MALME-3M melanoma; 0.144 µM in the experiment on RXF 393 renal; 0.0379 µM in the experiment on NCI-H226 lung; 0.024 µM in the experiment on SN12C renal; 0.0472 µM in the experiment on SF-539 CNS; 0.128 µM in the experiment with A498 renal. Also, in the experiment with UACC-62 melanoma, the GI50 is 0.0269 µM.

As for `O=C1C2C3CC4C5C3C1C5C1(SCCS1)C42` (configuration not stated), the TGI in the experiment on KM12 colon, in the experiment on MALME-3M melanoma, in the experiment with RXF 393 renal, in the experiment on NCI-H226 lung, in the experiment on UACC-257 melanoma and in the experiment on SN12C renal was over 100 µM in each case. For the same molecule, the TGI in the experiment on SF-539 CNS, in the experiment with A498 renal, with HL-60(TB) leukemia and in the experiment with UACC-62 melanoma was over 100 µM in each case.

Turning to `COc1ccc(C2COc3c(ccc(OC)c3OC)C2=O)cc1OC` (configuration not stated), the TGI with KM12 colon, with MALME-3M melanoma, with RXF 393 renal, in the experiment on NCI-H226 lung, with UACC-257 melanoma and in the experiment on SN12C renal was over 100 µM throughout. The TGI with SF-539 CNS, in the experiment with A498 renal, with HL-60(TB) leukemia and with UACC-62 melanoma was over 100 µM throughout.

For `Cc1cc(I)cc(CNCCN(C)C)c1O`, the GI50 in the experiment with KM12 colon was over 100 µM; in the experiment on MALME-3M melanoma, over 87.8 µM; with RXF 393 renal, 30.6 µM; in the experiment with NCI-H226 lung it was over 100 µM; with UACC-257 melanoma, over 62.5 µM; with SN12C renal it was over 85.6 µM. Further, the GI50 with SF-539 CNS was over 89.9 µM; with A498 renal it was 61.5 µM; in the experiment with HL-60(TB) leukemia it was 57.8 µM; in the experiment with UACC-62 melanoma it was 19.7 µM. Besides, the TGI with KM12 colon, in the experiment with MALME-3M melanoma, with RXF 393 renal, with NCI-H226 lung, in the experiment with UACC-257 melanoma and with SN12C renal was over 100 µM throughout. For the same molecule, the TGI is over 100 µM in the experiment on SF-539 CNS, over 100 µM in the experiment with A498 renal, over 100 µM with HL-60(TB) leukemia and 39.2 µM with UACC-62 melanoma.

For `COc1cc2cc(NCc3cccc(Cl)c3)nc(C)c2cc1OC`, the GI50 in the experiment on KM12 colon is 2.62 µM; with MALME-3M melanoma it was 10.3 µM; with RXF 393 renal it was 3.57 µM; in the experiment with NCI-H226 lung, 4.35 µM; with UACC-257 melanoma it was 4.61 µM; with SN12C renal, 2.21 µM. The GI50 with SF-539 CNS is 1.37 µM; in the experiment with A498 renal, 1.17 µM; in the experiment on HL-60(TB) leukemia, 2.95 µM; in the experiment with UACC-62 melanoma, 0.498 µM. Moreover, the TGI in the experiment on KM12 colon turned out to be 15.8 µM; with MALME-3M melanoma, 23.8 µM; with RXF 393 renal, 16.3 µM; with NCI-H226 lung it was 26.3 µM; with UACC-257 melanoma, 19.3 µM; in the experiment with SN12C renal, 17.4 µM. Also, the TGI came out at 7.54 µM with SF-539 CNS, 11.6 µM in the experiment with A498 renal, 55.9 µM in the experiment on HL-60(TB) leukemia and 5.41 µM with UACC-62 melanoma.

Regarding `N#CC1=C(N)Oc2c(sc3c(Br)cccc23)C1c1ccc([N+](=O)[O-])cc1` (configuration not stated), the GI50 in the experiment on KM12 colon was 0.0997 µM; with MALME-3M melanoma, 1.08 µM; in the experiment on RXF 393 renal it was 0.036 µM; in the experiment on NCI-H226 lung, 0.368 µM; with UACC-257 melanoma, 11.4 µM; in the experiment with SN12C renal, 1 µM. For the same molecule, the GI50 in the experiment with SF-539 CNS was 0.0619 µM; in the experiment on A498 renal it was 0.0434 µM; in the experiment with HL-60(TB) leukemia, 0.0816 µM; in the experiment on UACC-62 melanoma it was 0.0634 µM. Further, the TGI worked out at 9.36 µM in the experiment with KM12 colon; 24.7 µM in the experiment with MALME-3M melanoma; 2.23 µM in the experiment with RXF 393 renal; 15.6 µM with NCI-H226 lung; 27.5 µM in the experiment with UACC-257 melanoma; 13.1 µM in the experiment on SN12C renal. In addition, the TGI in the experiment on SF-539 CNS is 0.475 µM; in the experiment with A498 renal, 0.935 µM; in the experiment on HL-60(TB) leukemia, 1.15 µM; with UACC-62 melanoma, 12.3 µM.

As to `COc1cc(/C=C/C(=O)c2cccc(-n3cc(-c4ccccc4)[nH]c3=O)c2)cc(OC)c1OC`, the GI50 is 1.37 µM in the experiment on KM12 colon; 1.31 µM in the experiment on MALME-3M melanoma; 1.71 µM in the experiment with RXF 393 renal; 14.6 µM with NCI-H226 lung; 1.52 µM in the experiment with UACC-257 melanoma; 2.09 µM with SN12C renal. The GI50 with SF-539 CNS is 1.68 µM; in the experiment with A498 renal, 2.65 µM; with HL-60(TB) leukemia it was 2.9 µM; in the experiment on UACC-62 melanoma, 1.52 µM. For the same molecule, the TGI with KM12 colon turned out to be 2.66 µM; in the experiment on MALME-3M melanoma it was 3.56 µM; with RXF 393 renal, 3.53 µM; in the experiment on NCI-H226 lung, 97.4 µM; in the experiment with UACC-257 melanoma, 3.17 µM; in the experiment on SN12C renal it was 10.7 µM. The TGI in the experiment with SF-539 CNS is 3.12 µM; with A498 renal it was 6.63 µM; with HL-60(TB) leukemia it was over 100 µM; in the experiment on UACC-62 melanoma, 2.98 µM.

Turning to `CCC(=C(c1ccc(OCCN2CCCCC2)cc1)c1ccc(OCCN2CCCCC2)cc1)c1ccc(Cl)cc1`, the GI50 is over 16.7 µM in the experiment on KM12 colon; 2.72 µM with MALME-3M melanoma; 3.08 µM in the experiment on RXF 393 renal; over 16.7 µM with NCI-H226 lung; 3.47 µM with UACC-257 melanoma; over 16.7 µM with SN12C renal. For the same molecule, the GI50 is 2.55 µM in the experiment with SF-539 CNS, over 16.7 µM in the experiment with A498 renal, 3.41 µM in the experiment with HL-60(TB) leukemia and 3.09 µM with UACC-62 melanoma. In addition, the TGI in the experiment with KM12 colon was over 16.7 µM; in the experiment on MALME-3M melanoma, 5.21 µM; in the experiment on RXF 393 renal, 16.6 µM; in the experiment with NCI-H226 lung, over 16.7 µM; in the experiment with UACC-257 melanoma, 8.08 µM; in the experiment on SN12C renal, over 16.7 µM. Further, the TGI with SF-539 CNS was 5.02 µM; in the experiment with A498 renal, over 16.7 µM; with HL-60(TB) leukemia, 9.55 µM; with UACC-62 melanoma, 6.2 µM.

Source of the values: PubChem BioAssay (NCI).
